# Peptide text beside a SMILES is read from it.
# Key:
# Format in all cases: cell-based
# [1] = test system: Staphylococcus epidermidis ATCC 12228
# Experimental: (§3) MIC denotes the lowest concentration of an antimicrobial agent that can inhibit the growth of bacteria after overnight incubation.
# (§4) Bacteria were grown in their respective media (Table 2 above) overnight at 37° C. or room temperature with constant shaking and then diluted to 10^6 CFU/ml in their respective medium. Stock solutions of peptides at 0.68 mM were prepared in distilled water. Bacteria and peptide were incubated (50 μl: 50 μl) to make the final peptide concentrations (0.68, 3.4, 6.8, 13.7, 34.1, 68.3, 136.5 μM) in a 96-microtitre plate and incubated for 24 h with constant shaking. […] Absorbance at 600 nm was detected every 3 h up to 24 h to obtain the growth curves. The minimal inhibition concentration (MIC) was defined as the lowest concentration of an antimicrobial agent that could inhibit the growth of bacteria after overnight incubation.
# E. coli PQ37 = assay: SOS induction (chromotest); conditions: E. coli PQ37, 120 min; Peptide A 3.4 μM, Piscidin 3.77 μM
# Experimental: (§1) Results are expressed as 2^(−Delta Delta C (T)). […] Results are expressed as 2^(−Delta Delta C (T)).
# E. coli PQ37 (Genotype: Sfi A and Lac Z fusion, lac Z) was cultured in lysogeny broth (LB) that contained 57.2 μM of ampicillin overnight (37° C.) and subcultured through 20 dilutions on another day so that OD600 equals to 0.2-0.4. PQ37 was incubated in 0.3 ml AMP (3.4 μM) or Piscidin ([…], 3.77 μM) for 2 hours and then re-suspended in the same volume of Z-buffer (Na2HPO4.7H2O 16.1 g/l, NaH2PO4.2H2O 6.24 g/L, KCl 0.75 g/L, MgSO4.7H2O 0.246 g/L and b-mercaptoethanol 0.3% (v/v)) for carrying out a β-galactosidase assay (β-ga) and alkaline phosphatase assay (ap), respectively. The bacteria were lysed with 0.1 ml of 0.1% SDS and 0.15 ml of chloroform. For the β-ga assay, the reaction was started by adding 0.6 ml of ortho-Nitrophenyl-β-galactoside (ONPG; Catalog number 34055, ThermoFisher Scientific) for color development and then stopped with the addition of 2 ml of 1 M NaCO3 solution. For ap acsay, the reaction was started by adding 0.6 ml of para-Nitrophenylphosphate (PNPP; Catalog number 34045, ThermoFisher Scientific) for color development which was then terminated by the addition of 1 ml of 2 M HCl solution and 1 ml of 2 M Tri-HCl to restore the colour. The absorbance was read at 420 nm against a blank without bacteria. The induction factor (IF) was calculated as the ratio R(x)/R(0) (R(x)=β-g/ap determined for the tested peptide; R(0)=β-g/ap determined for the LB). Furacin (antibiotic) and Piscidin were chosen as the controls. Each experiment was performed in triplicate.
# [2] = test system: Methicillin-resistant S. aureus ATCC BAA-41
# Experimental: as §3, §4
# RpoE = assay: Quantitative real-time PCR; conditions: E. tarda, 6.8 μM, 1 hr
# Source text: as §1
# (§2) Each group has 6 biological replicates. […] Gene-specific primers were designed with Primer-BLAST (NCBI).
# CpxR = assay: Quantitative real-time PCR; conditions: E. tarda
# Source text: as §1, §2
# [3] = test system: Klebsiella pneumoniae (NDM-1) ATCC BAA-2470
# Experimental: as §3, §4
# E. tarda = assay: Quantitative proteomic analysis of AMP-treated bacteria; conditions: 6.8 μM, 1 hr
# Experimental: Bacteria with or without AMP treatment for 1 hr at 6.8 μM were washed and lysed in 8 M of urea for 2 hrs. The lysate was then reduced in 10 mM of dithiothreitol (DTT) in 50 mM of ammonium bicarbonate (30 min at room temperature) and alkylated in 50 mM of […] (IAA) in 50 mM of ammonium bio-carbonate (20 min at room temperature). The samples were diluted 8 times with ammonium bicarbonate (50 mM, pH 8.0) so that the final concentration of urea was 1 M, followed by 2 μg of trypsin (Roche, Mannheim, Germany) for digestion. The mixtures were then incubated overnight at 37° C. and dried in a vacuum centrifuge (Eppendorf Concentrator plus). The peptides were dissolved in 20 μl of 0.1% trifluoroacetic acid (TFA), followed by ZipTip (Millipore, Billerica, Mass., USA) purification that was carried out in accordance with the manufacturer's instructions.
# Mass spectrometry (MS) data were collected on an Orbitrap Fusion mass spectrometer coupled on-line with a nanoUPLC EASY-LC-1000 liquid chromatography system (ThermoFisher Scientific™, San Jose, Calif.). The peptides were eluted by using a microcapillary column with 50 cm×75 μm ID, PepMap C18, 2 μm particles (ThermoFisher Scientific™) with 2 to 80% acetonitrile in 0.1% formic acid at a flow rate of ˜350 nL/min for 120 min of gradient. They were ionized through electrospray ionization (positive mode 2.1 kV), and survey scans of peptide precursors from 350 to 1550 m/z were performed at a resolution of 120 K at 200 m/z. Tandem MS was performed by isolation at 1.2 Th with the quadrupole component, fragmentation with normalized collision energy of 35%, and rapid scan MS analysis in the ion trap. The MS2 ion count target was set to 10E4 and the maximum injection time was 250 ms. Only precursors with a charge state of 2-7 were fragmented for the MS2 analysis. The dynamic exclusion duration was set to 60 s with a 10 ppm of low and high mass tolerance around the selected precursor and its isotopes. The instrument was run in data dependent mode by using Orbitrap and an ion trap with […] cycles.
# The raw data were analyzed by using Proteome Discoverer (Version 1.4.0.288. Thermo Fisher Scientific). The MS/MS spectra were searched with the Mascot search engine against the NCBI bacteria database 2014 (with 29,574 sequence entries). The peptides were generated from a Lys-C and tryptic digestion and the precursor mass tolerance was set as 25 ppm, and 0.6 Da for fragment mass tolerances. The oxidation of methionine and deamidation of N, Q were set as the dynamic modification, and the carbamidomethylation of cysteine-C as the static modification. The peptide spectral matches (PSMs) were validated by using a percolator based on q-values at a 1% false discovery rate (FDR). For protein identification, a high-confidence database search with a peptide target FDR (strict) of 0.1%, and target FDR (relaxed) 0.5% and ranked 1 peptides were used for peptide filtering. Identified peptides were grouped into individual protein clusters by scaffolding.
# Peptide quantitation was carried out by using Progenesis LC-MS (version 4.1, Nonlinear) and as described in Babaei, F. et al. J. Proteome Res. Eversion, (2013). […] Following a statistical analysis, processing was carried out by using transformed “log-like” […] calculations of all the detected features. The total cumulative abundance was calculated by summing the abundance of all peptides that belonged to a respective protein. […]
structure (smiles),measurement,setting,value
"CC[C@H](C)[C@H](N)C(=O)N[C@@H](CCCNC(=N)N)C(=O)N[C@H](C(=O)N[C@H](C(=O)N[C@@H](CC(C)C)C(=O)N[C@@H](CCCNC(=N)N)C(=O)N[C@@H](C)C(=O)N[C@@H](CCC(N)=O)C(=O)NCC(=O)N[C@@H](C)C(=O)N[C@@H](CC(C)C)C(=O)N[C@@H](CCCCN)C(=O)N[C@H](C(=O)O)[C@@H](C)CC)[C@@H](C)CC)[C@@H](C)CC [Peptide A, IRIILRAQGALKI] (H-IRIILRAQGALKI-OH; N-terminus and C-terminus assumed)",MICs,[1],2.7 µM
same,SOS response (induction factor),E. coli PQ37,consistent induction of SOS response
same,MICs,[2],21.8 µM
same,RpoE mRNA expression,RpoE,significantly induced
same,CpxR mRNA expression,"CpxR; Peptide A 6.8 μM, 1 hr",significantly reduced
same,CpxR expression induced by ampicillin,"CpxR; Peptide A+Ampicillin (3.4 μM; 71.5 μM), 1 hour",revert the induction of CpxR expression
same,MICs,[3],21.8 µM
same,"expression of CPX two component pathway proteins DsbC, PpiA and FkpA",E. tarda,down-regulated
same,"expression of DegQ, RpsO and YfiO (downstream proteins of the RpoE pathway)",E. tarda,up-regulation
same,"expression of Peptidyl-prolyl isomerase family members PpiA, PpiB, FkpA and SurA",E. tarda,highly suppressed
same,"expression of proteins involved in outer membrane assembly, peptidoglycan synthesis, and metal ion binding",E. tarda,induced
same,proteins differentially expressed (at least one-fold difference) of 251 high confidence proteins,E. tarda,74

# Source: patent publication US11065296B2, “Antimicrobial peptide, its analog and use” (City University of Hong Kong, priority 2018, dated 2021)
